The values that follow come from patent US11999695B2, “YAP1 inhibitors that target the interaction of YAP1 with OCT4” (H. LEE MOFFITT CANCER CENTER AND RESEARCH INSTITUTE, INC., priority 2016, dated 2024).

Each structure is given as a SMILES string. Where only a bound is given, the exact number is not on record here.

The subject of assay [1] is cisplatin-insensitive SP cells from H1650 cells. The experiment in a line: Sphere formation of cisplatin-insensitive SP cells (FIG. 30). The assay is classed as cell-based. Conditions: YAP1 inhibitors 2 uM, cisplatin 5 uM. On the procedure:
One feature of cancer stem cells is their drug resistance. Sphere formation of SP cells from H1650 cells was conduced in the presence of cisplatin; stem-like SP cells can self-renew and form spheres in stem-cell selective media and on low-adherence plates, even in the presence of 5 uM cisplatin (top right image).

Assay [2] deals with stem-like side-population (SP) cells. The experiment in a line: Sphere-formation assay, self-renewal of side-population cells (FIG. 18-21). It counts as cell-based. Conditions: SP cells in low-adherence plates, stem-cell selective media, 10 days. On the procedure:
FIG. 18 is a group of cell micrographs showing inhibition of self-renewals by selected compounds in a sphere formation assay. Self-renewal of stem-like side-population (SP) cells was measured by a sphere-formation assay. Essentially, side-population cells were sorted by flow cytometry based on Hoechst 33342 dye exclusion as described in our publications. Isolated SP cells were grown in low-adherence plates in stem-cell selective media for 10 days (Singh and Chellappan, 2012, Bora-Singhal et al., 2015 etc). Self-renewal ability of the stem-like cells can be assessed by the formation of spheres under these conditions; non-stem cells cannot self-renew and form spheres.
The assay is conducted for 10 days, and the number of spheres larger than 50 μm in diameter is counted.

The target of assay [3] is YAP1:OCT4 (Homo sapiens, UniProt P46937). As to the kind of experiment: In vitro YAP1:OCT4 ELISA binding assay. Conditions: YAP1:OCT4 disruption. On the procedure:
Activities of Compounds in the In Vitro YAP1:OCT4 ELISA Binding Assay
Selected compounds were assayed in a YAP1:OCT4 binding assay.
Background: An ELISA detects its analyte on a solid surface through an enzyme-linked reagent.

In assay [4] the target is T1, binding of Oct4 to YAP1 (Homo sapiens, UniProt P46937).
T1 construct: Lysates were prepared from the cells, and immunoprecipitated with an antibody to OCt4; endogenous in cells; host or cells: A549 and H1650 cells
T1 sequence (P46937 whole entry): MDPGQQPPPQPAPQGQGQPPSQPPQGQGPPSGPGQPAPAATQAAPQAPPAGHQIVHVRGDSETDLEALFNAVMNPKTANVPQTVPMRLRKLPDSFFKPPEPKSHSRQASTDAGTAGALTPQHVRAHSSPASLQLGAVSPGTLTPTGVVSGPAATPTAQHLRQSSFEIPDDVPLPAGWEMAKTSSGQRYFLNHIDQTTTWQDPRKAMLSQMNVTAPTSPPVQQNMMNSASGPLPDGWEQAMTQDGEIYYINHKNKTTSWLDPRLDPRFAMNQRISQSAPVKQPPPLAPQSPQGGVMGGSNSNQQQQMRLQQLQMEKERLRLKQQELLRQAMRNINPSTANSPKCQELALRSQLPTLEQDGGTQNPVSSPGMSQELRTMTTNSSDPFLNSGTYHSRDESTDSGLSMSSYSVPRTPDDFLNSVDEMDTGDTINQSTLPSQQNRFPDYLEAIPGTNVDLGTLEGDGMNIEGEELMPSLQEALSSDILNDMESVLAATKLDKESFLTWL
As to the kind of experiment: Immunoprecipitation-Western blot of Oct4-YAP1 binding (FIG. 15). It counts as cell-based. Conditions: 5 μM, 72 hours. On the procedure:
FIG. 15 is a group of gel images showing peptidomimetic compounds SR2-022, SR2-030, and SR2-033 reduced YAP1-Oct4 interaction as detected by IP-WB. An immunoprecipitation-Western blot experiment was conducted to assess if the indicated compounds could disrupt the binding of Oct4 to YAP1. IP-western blots were conducted using the protocols described in Bora-Singhal et al, 2015. Essentially, cells were treated with 5 μM of the indicated compounds for 72 hours. Lysates were prepared from the cells, and immunoprecipitated with an antibody to OCt4, or a control IgG. Lysates as well as the immunoprecipitates were resoled by a polyacrylamide gel and a western blot was conducted using an antibody to YAP1.
For orientation: Immunoblotting shows a protein as a band on a membrane.

The subject of assay [5] is primary cancer associated fibroblasts. As to the kind of experiment: Cytokine array (FIG. 40). It counts as cell-based.
The test system of assay [6] is Sox2. The experiment in a line: Sox2 protein expression, gel images (FIG. 16). The assay is classed as cell-based. Conditions: adenocarcinoma cells. From the text: FIG. 16 is a group of gel images showing Sox2 protein expression was reduced by SR-2033 in adenocarcinoma cells.
Assay [7] relates to A549 lung adenocarcinoma cells. As to the kind of experiment: Cytokine array on A549 cells (FIG. 39). It counts as cell-based. The source says:
FIG. 39 is a graph showing results from a cytokine array performed on A549 cells treated with SR2-033.

The test system of assay [8] is phoshodiesterate kinase 2. The experiment in a line: Western blot of phoshodiesterate kinase 2 levels (FIG. 17). The assay is classed as cell-based. Conditions: 10 uM; 72 hours. On the procedure:
(§1) FIG. 17 is a group of gel images showing compounds SR2-046, SR2-051, and SR2-052 reduce Sox2, c-Myc expression in H165 and A549 cells. Cells were treated for 72 hours with the indicated compounds. A western blot showing the reduction of Sox2 expression in H1650 cells and in A549 cells after treatment with 10 uM of the drugs for 72 hours. There was a reduction in the levels of C-myc and phoshodiesterate kinase 2 as well. Western blotting was done using our standard protocols, as published in Bora-Singhal et al., 2015.

Assay [9] has as its system c-Myc. The experiment in a line: Western blot of c-Myc expression (FIG. 17). It counts as cell-based. Conditions: H1650 and A549 cells; 10 uM; 72 hours. On the procedure: as §1
For assay [10], the system named is Sox2. The experiment in a line: Western blot of Sox2 expression (FIG. 17). It counts as cell-based. Conditions: H1650 and A549 cells; 10 uM; 72 hours. On the procedure: as §1
In assay [11] the test system is methotrexate insensitive H146 small-cell lung carcinoma cells. The experiment in a line: Sphere formation of methotrexate-insensitive cells (FIG. 31). Conditions: YAP1 inhibitors 2 uM, methotrexate 2.5 uM. It counts as cell-based. On the procedure:
A similar experiment, where sphere formation of small-cell lung cancer cells, which are insensitive to methotrexate, was inhibited by YAP1 inhibitors. Sphere formation of SP cells from H146 small-cell lung carcinoma cells was conduced in the presence of 2.5 uM methotrexate; stem-like cells can self-renew and form spheres in stem-cell selective media and on low-adherence plates, even in the presence of 2.5 uM methotrexate.

YAP1:OCT4, sequence (P46937 whole entry): as above

With `N.N.[Cl][Pt][Cl]` [Cisplatin], the “self-renewal (sphere formation) of dissociated cisplatin-insensitive spheres” value in assay [1] was “allowed self-renewal and formation of colonies”. Also, in assay [2], the number of spheres entry is reported as “no effect”.

Compound `COC(=O)[C@H](Cc1ccc(OCc2ccccc2)cc1)NC(=O)CC1CCN(C(=O)CCc2ccc(Cl)c(Cl)c2)CC1` [SR2-030, Methyl (S)-3-(4-(benzyloxy)phenyl)-2-(2-(1-(3-(3,4-dichlorophenyl)propanoyl)piperidin-4-yl)acetamido)propanoate] yielded an IC50 in assay [3] below 10 µM. The “YAP1-Oct4 interaction detected by IP-WB” value in assay [4] (A549 cells) is recorded as “completely abolished”; in assay [4] (H1650 cells) it was “significantly reduced”.

In the case of `COC(=O)[C@H](Cc1ccc(OCc2ccccc2)cc1)NC(=O)CC1CCN(C(=O)CCc2ccc(C#N)cc2)CC1` [SR2-033, Methyl (S)-3-(4-(benzyloxy)phenyl)-2-(2-(1-(3-(4-cyanophenyl)propanoyl)piperidin-4-yl)acetamido)propanoate], the IC50 in assay [3] was below 10 µM. In addition, the “YAP1-Oct4 interaction detected by IP-WB” value in assay [4] (A549 cells) is on record as “completely abolished”; in [4] (H1650 cells), “significantly reduced”. Also, the “levels of secreted cytokines (cytokine array)” value in [5] and in assay [7] was “altered” in each case. Further, the Sox2 protein expression result in [6] was “reduced”.

On to `COC(=O)[C@H](Cc1ccc(OCc2ccccc2)cc1)NC(=O)CC1CCN(C(=O)CCCc2ccccc2)CC1` [SR2-046, Methyl (S)-3-(4-(benzyloxy)phenyl)-2-(2-(1-(4-phenylbutanoyl)piperidin-4-yl)acetamido)-propanoate], for which, in assay [8], the “levels of phoshodiesterate kinase 2 (western blot)” value (“levels … (western blot)” for short) is listed as “reduction”. In addition, in [3], the IC50 was below 10 µM. Further, the “c-Myc expression (western blot)” value in assay [9] is “reduce”. The “Sox2 expression (western blot)” value in assay [10] was “reduce”.

Turning to `COC(=O)[C@H](Cc1ccc(OCc2ccccc2)cc1)NC(=O)CC1CCN(C(=O)c2ccc(NC(=O)OC(C)(C)C)cc2)CC1` [SR2-051, Methyl (S)-3-(4-(benzyloxy)phenyl)-2-(2-(1-(4-((tert-butoxycarbonyl)amino)benzoyl)piperidin-4-yl)acetamido)propanoate], the “levels … (western blot)” value in assay [8] is on record as “reduction”. Further, in assay [3], the IC50 was below 10 µM. The “c-Myc expression (western blot)” value in assay [9] is reported as “reduce”. In assay [10], the “Sox2 expression (western blot)” value is on record as “reduce”.

Regarding `COC(=O)[C@H](Cc1ccc(OCc2ccccc2)cc1)NC(=O)CC1CCN(C(=O)Cc2ccc(NC(=O)OC(C)(C)C)cc2)CC1` [SR2-052, Methyl (S)-3-(4-(benzyloxy)phenyl)-2-(2-(1-(2-(4-((tert-butoxycarbonyl)amino)phenyl)acetyl)piperidin-4-yl)acetamido)propanoate], in assay [8], the “levels … (western blot)” value is reported as “reduction”. For the same compound, the IC50 in assay [3] is below 10 µM. In [9], the “c-Myc expression (western blot)” value is recorded as “reduce”. In [10], the “Sox2 expression (western blot)” value is “reduce”.

As to `CN(Cc1cnc2nc(N)nc(N)c2n1)c1ccc(C(=O)N[C@@H](CCC(=O)O)C(=O)O)cc1` [methotrexate], the “self-renewal (sphere formation) of dissociated methotrexate-insensitive spheres” value in assay [11] was “allowed self-renewal and formation of colonies”.

A word on the IC50: it is the concentration at which inhibition is half-maximal. A high value points to lower potency.
